Like-named read-outs stand apart in the source and are kept apart here.
Assays:
[1] = system: NCI-H929 cells; assay: viability of lenalidomide-preincubated NCI-H929 cells; type: cell-based, human; details: NCI-H929 cells preincubated 5 days with 3 μM lenalidomide
Experimental: FIG. 11: Percentage inhibition of viability of lenalidomide-preincubated NCI-H929 cells by HexaBody-DR5/DR5, lenalidomide and the combination thereof. […] Graphs show the mean and SD of duplicate measurements from a representative experiment (n=3).

[2] = system: primary MM cells; details: 3 μM, 24 h viability assays on primary MM cells ex vivo
[3] = system: A375; assay: three-day viability assay (CellTiter-Glo); type: cell-based, human; details: A375 melanoma, 3 days
Experimental: (§1) COLO 205 cancer cells were harvested by pooling the culture supernatant containing non-adherent cells and trypsinized adherent cells. The other cell lines were harvested by trypsinization. For trypsinization, adherent cells were incubated with Trypsin-EDTA (Gibco, Cat no 15400-054) diluted in PBS (B.Braun; Cat no 3623140) to a final concentration of 0.05% Trypsin for 2 minutes at 37° C. and passed through a cell strainer. Cells were pelleted by centrifugation for 5 minutes at 1,200 rpm and resuspended at a concentration of 0.5x10^5 cells/mL in culture medium.
(§2) 100 μL of single cell suspensions (5,000 cells per well) were seeded in polystyrene 96-well flat-bottom plates (Greiner Bio-One, Cat no 655180) and allowed to adhere overnight at 37° C. The following day, 50 μL antibody samples (0.002-133 nM final concentrations in 4-fold dilutions) were added to the adherent cells and incubated for 3 days at 37° C. As a positive control in all viability assays, cells were incubated with 5 μM staurosporine (Sigma Aldrich, Cat no S6942), and untreated cells were included as the negative control. The viability of the cultured cells was determined in a CellTiter-Glo Luminescent Cell Viability Assay (Promega, Cat no G7571) that quantifies the presence of ATP, which is an indicator of metabolically active cells. From the kit, 15 μL Luciferin Solution Reagent was added to each well of the viability assay plate. Next, plates were incubated for 1.5 hours at 37° C. 100 μL supernatant was transferred to a white OptiPlate-96 (Perkin Elmer, Cat no 6005299) and luminescence was measured on an EnVision Multilabel Reader (PerkinElmer). Data were analyzed and plotted using non-linear regression (sigmoidal dose-response with variable slope) using GraphPad Prism software. The percentage viable cells was calculated using the following formula: % viable cells=[(luminescence antibody sample−luminescence staurosporine sample)/(luminescence no antibody sample−luminescence staurosporine sample)]×100.

[4] = system: BxPC-3; assay: three-day viability assay (CellTiter-Glo); type: cell-based, human; details: BxPC-3 pancreatic, 3 days
Experimental: as §1, §2

[5] = system: COLO 205; assay: three-day viability assay (CellTiter-Glo); type: cell-based, human; details: COLO 205 CRC, 3 days
Experimental: as §1, §2

[6] = system: HCT-15; assay: three-day viability assay (CellTiter-Glo); type: cell-based, human; details: HCT-15 CRC, 3 days
Experimental: as §1, §2

[7] = system: PANC-1; assay: three-day viability assay (CellTiter-Glo); type: cell-based, human; details: PANC-1 pancreatic, 3 days
Experimental: as §1, §2

[8] = system: SK-MES-1; assay: three-day viability assay (CellTiter-Glo); type: cell-based, human; details: SK-MES-1 NSCLC, 3 days
Experimental: as §1, §2

[9] = system: SNU-5; assay: three-day viability assay (CellTiter-Glo); type: cell-based, human; details: SNU-5 gastric, 3 days
Experimental: as §1, §2

[10] = system: human cancer cell lines; assay: viability assays in various human cancer cell lines (overall); type: cell-based
Experimental: as §1, §2

[11] = system: colorectal cancer PDX model CR0126; assay: in vivo anti-tumor activity, PDX model; parameters: species or system mice; details: 2 mg/kg QWx2 IV; Mann-Whitney p<0.0379
Experimental: (§3) Immunodeficient 8-13 weeks old female BALB/c athymic nude mice (Beijing HFK Bio-Technology Co. Ltd.) or nu/nu mice (Vital River Laboratories Research Models and Services) were inoculated subcutaneously at the right flank with one tumor fragment (2-3 mm diameter) derived from colorectal cancer PDX model CR0126 or CR3056 at CrownBio, Beijing, China. Earmarks were placed for mouse identification. Tumor volumes were measured at least twice per week using a digital caliper (PLEXX). Tumor volumes (mm^3) were calculated as follows: tumor volume=0.5×(length)×(width)^2. When the mean tumor size reached ˜200 mm^3, mice were divided into groups of 8 mice each, with equal tumor size distribution (average and variance). Mice were treated QW×2 by IV injection of 10 μL IgG1-DR5-01-G56T-E430G+IgG1-DR5-05-E430G per gram body weight: 0.2 mg/mL (2 mg/kg) or 0.05 mg/mL (0.5 mg/kg). For each model, statistical analysis was performed on the last day that all groups were intact.

[12] = system: colorectal cancer PDX model CR3056; assay: in vivo anti-tumor activity, PDX model; parameters: species or system mice
Experimental: as §3

[13] = dose range finding study by intravenous infusion, plasma PK; type: in vivo, cynomolgus monkey; details: 0.1, 0.5, 5 and 25 mg/kg IV
[14] = system: CDX and PDX mouse models; assay: in vivo anti-tumor response in CDX and PDX mouse models (overall)
Experimental: Therefore, the FIH starting dose of 0.3 mg/kg was considered to be in the lower end of a potential therapeutic dose-range in human patients.

[15] = nonclinical immune agonism / cytokine release assessment
[16] = system: primary MM cells; assay: 24-hour ex vivo viability assay with BMNCs of MM patients, flow cytometry; type: cell-based, human; details: 20 μg/mL
[17] = system: NCI-H929 cells; assay: cytotoxicity in NCI-H929 cells with healthy donor PBMCs; type: cell-based, human; details: 20 μg/mL, 24 h, absence and presence of healthy donor PBMCs
Experimental: FIG. 12: Inhibition of cell viability by HexaBody-DR5/DR5 in combination with lenalidomide on NCI-H929 cells in presence and absence of healthy donor peripheral blood mononuclear cells (PBMCs) in vitro. (A) Percentage kill of NCI-H929 cells by 20 μg/mL HexaBody-DR5/DR5 after a 24-hour incubation in the absence and presence of healthy donor PBMCs (n=6) in a 40:1 effector to target ratio. Mean and SD are shown. (ns) not significant (paired t-test). […] NCI-H929 cells were incubated with lenalidomide-exposed PBMCs and treated with lenalidomide and/or HexaBody-DR5/DR5 for an additional 24 h. Mean percentage kill and SD is shown. **p<0.005; ***p<0.0005 (paired t-test).
To test possible indirect immunomodulatory effects of lenalidomide on HexaBody-DR5/DR5-mediated killing, PBMCs of healthy donors were preincubated with 3 μM lenalidomide for 5 days. Subsequently, NCI-H929 cells were incubated with 3 μM lenalidomide, lenalidomide-exposed PBMCs and/or 20 μg/mL HexaBody-DR5/DR5 for an additional 24 h.

[18] = cynomolgus monkey, in vivo, iv
[19] = single dose study by intravenous infusion, plasma PK (generic IgG ECLIA); details: for Cmax / Tmax / Vd: group mean
[20] = repeat-dose toxicity study, 5 weekly IV infusions (toxicokinetics, NOAEL/HNSTD)
[21] = median over the seven cell lines with >40% max inhibition
[22] = newly diagnosed (ND) patient samples
[23] = relapsed and/or refractory (RR) patient samples
[24] = 1QWx5 IV dosing, GLP toxicity study

With `Nc1cccc2c1CN(C1CCC(=O)NC1=O)C2=O` (stereo not drawn) [lenalidomide] the “effect of preincubation on HexaBody-DR5/DR5-mediated kill” value [1] was “no direct effect” and the single agent activity [2] was “no single agent activity”.

In the case of “HexaBody-DR5/DR5: 1:1 mixture of IgG1-hDR5-01-G56T-E430G and IgG1-hDR5-05-E430G, two non-competing humanized anti-human DR5 IgG1 antibodies”, the “Average IC20” value [3] is reported as 0.067 µg/mL, the IC20 [3] is reported as 0.445 nM and the Max inhibition % [3] is reported as 54.6%. The “Average IC20” value [4] was 0.102 µg/mL, the IC20 [4] was 0.677 nM and the Max inhibition % [4] was 89.4%. For the same compound, the “Average IC20” value [5] was 0.015 µg/mL, the IC20 [5] was 0.103 nM and the Max inhibition % [5] was 99.6%. The “Average IC20” value [6] was 0.104 µg/mL, the IC20 [6] was 0.692 nM and the Max inhibition % [6] was 66.7%. For the same compound, the “Average IC20” value [7] was 0.083 µg/mL, the IC20 [7] was 0.554 nM and the Max inhibition % [7] was 61.0%. For the same compound, the “Average IC20” value [8] was 0.086 µg/mL, the IC20 [8] was 0.572 nM and the Max inhibition % [8] was 76.6%. The “Average IC20” value [9] was 0.041 µg/mL, the IC20 [9] was 0.274 nM and the Max inhibition % [9] was 44.7%. For the same compound, the “maximal inhibition of viability” value ([10]; in seven of the twelve cell lines tested) was “more than 40%”, the IC20 [10, 21] was 0.554 nM and the “Overall Median IC20” value [10, 21] was 0.083 µg/mL. For the same compound, the tumor growth inhibition [11] was “significant tumor growth inhibition”, the tumor growth inhibition ([12]; 0.5 mg/kg QWx2 IV, Mann-Whitney p<0.0379) was “significant tumor growth inhibition” and the tumor growth inhibition ([12]; 2 mg/kg QWx2 IV, Mann-Whitney p<0.0003) was “significant tumor growth inhibition”. For the same compound, the “increase in exposure with increasing dose, based on nCmax and nAUC0-∞” value [13] was “proportional increase in exposure”, the “target-mediated clearance (plasma concentration-time profiles)” value ([13]; single or repeated dose) was “no indications of target-mediated clearance” and the “In vivo anti-tumor response in CDX and PDX mouse models” value ([14]; dose giving full response) was 2 mg/kg. The “In vivo anti-tumor response in CDX and PDX mouse models” value ([14]; dose giving partial response) was 0.5 mg/kg, the “hazard of acute cytokine-releasing activity” value [15] was “no hazard of acute cytokine-releasing activity has been identified” and the immune agonistic properties [15] was “no immune agonistic properties”. For the same compound, the “median lysis of MM cells” value ([16]; RR patients under treatment or last treatment shorter than 1 month before BM biopsy) was 62%, the “median lysis of MM cells” value ([16]; RR patients with last exposure to therapy >1 month before BM biopsy) was 23% and the “median lysis of MM cells” value [16, 22] was 19%. For the same compound, the “range of lysis of MM cells” value [16, 22] was 3-69%, the “median lysis of MM cells” value [16, 23] was 43% and the “range of lysis of MM cells” value [16, 23] was 0-86%. For the same compound, the “effect of FcγR-mediated crosslinking on cytotoxicity” value [17] was “did not increase”, the “AUC0-∞ (μg · day/· mL^−1)” value ([18]; 0.5 mg/kg) was 40.3 μg · day/· mL^−1 and the “CL (mL · day^−1/· kg^−1)” value ([18]; 0.5 mg/kg) was 12.6 mL · day^−1/· kg^−1. The “T1/2” value ([18]; 0.5 mg/kg) was 3.48 days, the “nCmax (μg · mL^−1/mg · kg^−1)” value ([18]; 0.5 mg/kg) was 33.5 μg · mL^−1/mg · kg^−1 and the “AUC0-∞ (μg · day/· mL^−1)” value ([18]; 5 mg/kg) was 452.6 μg · day/· mL^−1. The “CL (mL · day^−1/· kg^−1)” value ([18]; 5 mg/kg) was 11.4 mL · day^−1/· kg^−1, the “T1/2” value ([18]; 5 mg/kg) was 4.59 days and the “nCmax (μg · mL^−1/mg · kg^−1)” value ([18]; 5 mg/kg) was 27.0 μg · mL^−1/mg · kg^−1. The “AUC0-∞ (μg · day/· mL^−1)” value ([18]; 25 mg/kg) was 2748 μg · day/· mL^−1, the “CL (mL · day^−1/· kg^−1)” value ([18]; 25 mg/kg) was 9.10 mL · day^−1/· kg^−1 and the “T1/2” value ([18]; 25 mg/kg) was 6.93 days. The “nCmax (μg · mL^−1/mg · kg^−1)” value ([18]; 25 mg/kg) was 18.8 μg · mL^−1/mg · kg^−1, the “Cmax” value ([19]; 0.5 mg/kg single IV) was 16.7 µg/mL and the “Tmax” value ([19]; 0.5 mg/kg single IV) was 0.0417 days. The “Vd” value ([19]; 0.5 mg/kg single IV) was 63.5 mL/kg, the “Cmax” value ([19]; 5 mg/kg single IV) was 135.0 µg/mL and the “Tmax” value ([19]; 5 mg/kg single IV) was 0.0417 days. The “Vd” value ([19]; 5 mg/kg single IV) was 72.6 mL/kg, the “Cmax” value ([19]; 25 mg/kg single IV) was 470.3 µg/mL and the “Tmax” value ([19]; 25 mg/kg single IV) was 0.14 days. The “Vd” value ([19]; 25 mg/kg single IV) was 91.0 mL/kg, the “increase in exposure with increasing dose, based on nAUC0-∞” value ([19]; 0.5 to 25 mg/kg) was “more or less proportional increase in exposure” and the “increase in exposure, based on nCmax” value ([19]; between 5 and 25 mg/kg) was “less than proportional increase in exposure”. The “increase in exposure, based on nCmax” value ([19]; up to a dose of 5 mg/kg) was “proportional increase in exposure”, the “HNSTDcyno” value [20, 24] was 50 mg/kg and the “NOAELcyno” value [20, 24] was 50 mg/kg. The “MRSDhuman (=NOAELcyno/6)” value ([20]; converted from cynomolgus NOAEL/HNSTD) was 8.3 mg/kg.

— patent US20230293680A1, “A COMPOSITION OF ANTI-DR5 ANTIBODIES AND AN IMMUNOMODULATORY IMIDE DRUG FOR USE IN TREATING MULTIPLE MYELOMA” (Genmab B.V., priority 2020, published 2023)
